Values quoted from earlier work in patent US20170080013A1, “METHODS AND COMPOSITIONS FOR DERMATOLOGICAL USE COMPRSING HYDROCORTISONE ACETATE AND BIOPOLYMERS” (APEX LABORATORIES PRIVATE LIMITED, priority 2015, published 2017).

In the case of CC(=O)OCC(=O)[C@@]1(O)CC[C@H]2[C@@H]3CCC4=CC(=O)CC[C@]4(C)[C@H]3[C@@H](O)C[C@@]21C [Hydrocortisone acetate, 11β, 17-dihydroxy-3, 20-dioxopregn-4-en-21-yl acetate], the Solubility in alcohol (alcohol) is given as “slightly soluble”, the Solubility in chloroform (chloroform) is given as “slightly soluble” and the Solubility in water (water) is given as “insoluble”.
